# Patent US20070031907A1, “Anaplastic lymphoma kinase assay, reagents and compositions thereof” (Istituto Nazionale Per Lo Studio E La Cura Dei Tumori, priority 2003, published 2007)
# Target: T1, purified rALK (Homo sapiens, UniProt Q9UM73)
# T1 construct: A portion of ALK, stretching from amino acids Leu^1073 to Ala^1459, has been cloned into the baculovirus transfer vector; made in house; host or cells: Sf9 (Spodoptera frugiperda) insect cells, baculovirus (pBlueBacHis2C, MaxBac 2.0)
# Test: ELISA-based in vitro kinase assay
# Assay type: biochemical
# Description: ELISA-based in vitro Kinase Assay A Nunc Immuno 96 well plate was incubated overnight at 37° C. with coating solution (125 μl/well) containing ALK peptide substrate (SEQ ID N. 1 or SEQ ID N. 2) at various concentrations in PBS. The wells were then washed with 200 μl of wash buffer (PBS-Tween 0.05%) and left to dry for at least 2 hours at 37° C. […] The reaction mix was then removed and wells were washed 5 times with 200 μl of wash buffer. Phosphorylated peptide was detected using 100 μl/well of a mouse monoclonal anti-phosphotyrosine antibody (clone 4G10 UpstateBiotech Ltd) diluted 1:500 in PBS+4% BSA. After 30 minutes incubation at room temperature the antibody was removed and wells were washed as described above. 100 μl of a secondary antibody (anti-mouse IgG, Horseradish Peroxidase linked whole antibody, from sheep, Amersham Pharmacia Biotech) diluted 1:1000 in PBS+4% BSA was added to each well and the plate was incubated again for 30 minutes at room temperature before washing as above. The plate was developed using 100 μl/well TMB Substrate Solution (Endogen) and the reaction was stopped by adding an equal volume of H2SO4 0.18 M. Finally, the absorbance was read at 450 or 490 nm using an Ultrospec® 300 spectrophotometer (Amersham-Pharmacia Biotech).
# T1 sequence (Q9UM73 1073-1459): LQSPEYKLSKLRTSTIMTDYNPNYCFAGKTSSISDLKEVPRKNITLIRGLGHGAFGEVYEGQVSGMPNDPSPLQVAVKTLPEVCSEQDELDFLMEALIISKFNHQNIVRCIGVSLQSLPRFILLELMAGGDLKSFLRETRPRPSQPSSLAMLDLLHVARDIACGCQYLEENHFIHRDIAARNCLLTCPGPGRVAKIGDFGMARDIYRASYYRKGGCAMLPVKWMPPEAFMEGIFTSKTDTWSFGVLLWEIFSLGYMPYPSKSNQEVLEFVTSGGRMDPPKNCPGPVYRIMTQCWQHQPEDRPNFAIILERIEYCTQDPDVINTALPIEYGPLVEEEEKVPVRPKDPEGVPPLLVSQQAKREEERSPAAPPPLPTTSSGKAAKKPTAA
structure (smiles),measurement,setting,value
CN[C@@H]1C[C@H]2O[C@@](C)([C@@H]1OC)n1c3ccccc3c3c4c(c5c6ccccc6n2c5c31)C(=O)NC4 [Staurosporine],concentration reaching maximum inhibition of rALK activity,"42 μM peptide substrate, 20 ng rALK, 30° C., 15 mins",1 µM
same,concentration at which effective as an ALK inhibitor,positive control for screening,0.2 to 0.3 µM
